Data reported in patent publication US8703713B2, “Combination therapy for pancreatic cancer using an antigenic peptide and chemotherapeutic agent” (Onco Therapy Science, Inc., priority 2007, dated 2014).
Counter-ions that a name gives are not always drawn. Peptide text beside a SMILES is read from it.

Legend:
[1] = Preliminary test administration of the peptide; assay type: in vivo, human; conditions: 10 mg of the peptide subcutaneously before first vaccine administration, monitoring 30 minutes, all cases
Description: For the purpose of avoiding unanticipated adverse events, such as anaphylactic shock, 10 mg of the peptide is subcutaneously administered as a preliminary test administration before the first vaccine administration to a site other than the site of the actual administration, and monitoring is carried out for 30 minutes. If a Grade 3 or higher local reaction or systemic adverse event could not be observed, the actual administration was carried out.

[2] = tested on: unresectable pancreatic cancer; conditions: cited from earlier work
[3] = standard therapy against unresectable pancreatic cancer

SMILES	local adverse event and systemic adverse event [1]	Evident tumor reducing effect (Objective Response) ([2]; gemcitabine alone, data obtained so far) [%]	Disease control rate (SD or higher) ([2]; gemcitabine alone, data obtained so far, listed as GEM alone)	median survival period [2, 3] [months]	one-year survival rate [2, 3] [%]
CC[C@H](C)[C@H](NC(=O)[C@H](CCCNC(=N)N)NC(=O)[C@H](CC(N)=O)NC(=O)CNC(=O)[C@H](CC(=O)O)NC(=O)[C@@H]1CCCN1C(=O)[C@@H](NC(=O)[C@H](Cc1ccccc1)NC(=O)[C@@H](N)CCCNC(=N)N)C(C)C)C(=O)O [VEGFR2-169, RFVPDGNRI] (H-RFVPDGNRI-OH)	not observed in any of the cases				
Nc1ccn([C@@H]2O[C@H](CO)[C@@H](O)C2(F)F)c(=O)n1 [gemcitabine, 2′-deoxy-2′,2′-difluorocytidine monohydrochloride (b-isomer)]		10	45-48%	5.7	18
